Some test systems named below: 786-0 renal; EKVX NSCLC; HCC-2998 colon; MDA-N; NCI-H460 lung; OVCAR-8 ovarian; SN12C renal; SW-620 colon; T-47D breast; TK-10 renal; CCRF-CEM leukemia.
Test in all cases: NCI-60 cell line screen, 48 h

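The compound was tested at five concentrations on cells cultured in 96-well plates, with a 48-hour exposure period. The concentration for full growth arrest is given as TGI.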

Take `Cc1ccc(NC(c2ccccc2)P(=O)(c2ccccc2)c2ccccc2)cc1` (configuration not stated): the TGI in the experiment with 786-0 renal, in the experiment with EKVX NSCLC, with HCC-2998 colon, in the experiment on MDA-N, with NCI-H460 lung and in the experiment with OVCAR-8 ovarian was over 100 µM each time. In addition, the TGI in the experiment on SN12C renal, in the experiment on SW-620 colon, with T-47D breast and with TK-10 renal was over 100 µM each time.

For `CNC(=O)OC1/C(C)=C\C(C)C(O)C(OC)CC(C)CC2=C(OC)C(=O)C=C(C2=O)N(C)C(=O)/C(C)=C/C=C\C1OC` (configuration not stated), the TGI came out at 18.2 µM with 786-0 renal; 4.08 µM in the experiment with CCRF-CEM leukemia; 24.7 µM with EKVX NSCLC; 21.4 µM in the experiment on HCC-2998 colon; 10.7 µM in the experiment on MDA-N; 39.7 µM with NCI-H460 lung. Also, the TGI with OVCAR-8 ovarian stood at 21.1 µM; in the experiment with SN12C renal, 16.5 µM; in the experiment on SW-620 colon, 12.5 µM; in the experiment with T-47D breast, 6.14 µM; in the experiment with TK-10 renal, 22 µM.

`Clc1ccc(Cc2nc3cc(Cl)c(Cl)cc3n2CC2CCCN3CCCCC23)cc1` (configuration not stated): the TGI was found to be 23.5 µM in the experiment on 786-0 renal; 23 µM in the experiment with EKVX NSCLC; 14.6 µM in the experiment on HCC-2998 colon; 24.2 µM in the experiment on MDA-N; 23.2 µM in the experiment on NCI-H460 lung; 26.1 µM in the experiment with OVCAR-8 ovarian. Further, the TGI is 25.4 µM in the experiment on SN12C renal, 31.3 µM with SW-620 colon, 64.6 µM in the experiment on T-47D breast and 27.7 µM in the experiment with TK-10 renal.

With `Cc1ccc([N+](=O)[O-])cc1S(=O)(=O)Nc1ccc(C2=NN(S(=O)(=O)c3cc([N+](=O)[O-])ccc3C)C(c3ccccc3O)C2)cc1` (configuration not stated), the TGI with 786-0 renal, in the experiment on CCRF-CEM leukemia, with EKVX NSCLC, in the experiment on HCC-2998 colon, in the experiment on MDA-N and in the experiment with NCI-H460 lung was over 100 µM in each case. The TGI in the experiment with OVCAR-8 ovarian, in the experiment on SN12C renal, with SW-620 colon, with T-47D breast and in the experiment with TK-10 renal was over 100 µM in each case.

On to `NC1CC(=O)c2c(I)sc(I)c21` (configuration not stated), for which the TGI with 786-0 renal was over 53.4 µM; in the experiment with CCRF-CEM leukemia, over 34.3 µM; in the experiment on EKVX NSCLC, 39.3 µM; in the experiment with HCC-2998 colon, 44.2 µM; in the experiment on MDA-N, 44.7 µM; in the experiment on NCI-H460 lung it was 66.8 µM. In addition, the TGI in the experiment on OVCAR-8 ovarian is over 55.4 µM; in the experiment with SN12C renal, over 60.6 µM; in the experiment with SW-620 colon, 46.1 µM; with T-47D breast, over 73 µM; in the experiment on TK-10 renal, 37.2 µM.

As for `CC(C)C(Sc1nc(N)nc2nc[nH]c12)C(=O)O` (configuration not stated), the TGI in the experiment on 786-0 renal, in the experiment with CCRF-CEM leukemia, in the experiment with EKVX NSCLC, with HCC-2998 colon, in the experiment on MDA-N and in the experiment on NCI-H460 lung was over 100 µM throughout. Further, the TGI in the experiment on OVCAR-8 ovarian, in the experiment with SN12C renal, with SW-620 colon, in the experiment with T-47D breast and in the experiment on TK-10 renal was over 100 µM in each case.

Consider `CC(NC(CC12CC3CC(CC(C3)C1)C2)C(N)=O)c1ccccc1` (configuration not stated), for which the TGI with CCRF-CEM leukemia is 41.9 µM; in the experiment on EKVX NSCLC it was over 100 µM; in the experiment with HCC-2998 colon, 40.7 µM; in the experiment on MDA-N, 75.6 µM; with NCI-H460 lung it was 36.6 µM; with OVCAR-8 ovarian it was 64.4 µM. Also, the TGI in the experiment on SW-620 colon, in the experiment with T-47D breast and in the experiment with TK-10 renal was over 100 µM throughout.

For the compound `CC(C)=CC(=O)c1[nH]c2ccccc2c1CC(=O)NCCc1cnc[nH]1`, the TGI in the experiment on 786-0 renal, in the experiment on CCRF-CEM leukemia, in the experiment on EKVX NSCLC, in the experiment on HCC-2998 colon, with MDA-N and with NCI-H460 lung was over 100 µM throughout. Besides, the TGI in the experiment on OVCAR-8 ovarian, in the experiment on SN12C renal, in the experiment on SW-620 colon, in the experiment with T-47D breast and in the experiment on TK-10 renal was over 100 µM in each case.

As for `CC[C@@]1(O)C(=O)OCc2c1cc1n(c2=O)Cc2c-1nc1ccc(N)cc1c2CC[Si](C)(C)C`, the TGI in the experiment on 786-0 renal is under 0.0276 µM; in the experiment on CCRF-CEM leukemia, under 0.01 µM; in the experiment on EKVX NSCLC it was 3.23 µM; in the experiment with HCC-2998 colon, 0.103 µM; in the experiment on MDA-N it was 1.62 µM; in the experiment with NCI-H460 lung, under 0.013 µM. Moreover, the TGI in the experiment on OVCAR-8 ovarian was 0.818 µM; in the experiment on SN12C renal it was under 0.01 µM; in the experiment with SW-620 colon it was 14.6 µM; in the experiment on T-47D breast, 20.6 µM; in the experiment with TK-10 renal, 3.88 µM.

Regarding `CCc1nnc2sc(-c3ccc(-c4ccccc4[N+](=O)[O-])o3)nn12`, the TGI in the experiment with 786-0 renal is over 100 µM; with CCRF-CEM leukemia, over 100 µM; in the experiment with EKVX NSCLC, over 100 µM; with HCC-2998 colon it was over 100 µM; in the experiment with MDA-N it was 46.1 µM; in the experiment with NCI-H460 lung, over 100 µM. Besides, the TGI in the experiment on OVCAR-8 ovarian, in the experiment with SN12C renal, with SW-620 colon, in the experiment on T-47D breast and with TK-10 renal was over 100 µM in each case.

On to `O=C(O)c1ccccc1Sc1ccc(C=C2NC(=S)N(c3ccccc3)C2=O)s1`, for which the TGI with 786-0 renal is 35.8 µM; with EKVX NSCLC, over 100 µM; in the experiment on HCC-2998 colon, over 100 µM; in the experiment with MDA-N, over 100 µM; with NCI-H460 lung, over 100 µM; with OVCAR-8 ovarian, over 100 µM. Besides, the TGI with SN12C renal, with SW-620 colon, with T-47D breast and in the experiment with TK-10 renal was over 100 µM in each case.

For the compound `O=C1N[C@@H]([C@H]2CC[C@H](Cl)CN2)C(=O)N[C@H]1[C@H]1CC[C@H](Cl)CN1`, the TGI was 0.61 µM with 786-0 renal; 33.4 µM with CCRF-CEM leukemia; 19.2 µM in the experiment with EKVX NSCLC; 6.42 µM with HCC-2998 colon; 4.98 µM with MDA-N; 2.88 µM in the experiment on NCI-H460 lung. The TGI in the experiment on OVCAR-8 ovarian is 13.9 µM; with SN12C renal, 18.9 µM; with SW-620 colon, 29.4 µM; in the experiment with T-47D breast, 56.1 µM; in the experiment on TK-10 renal, 36.6 µM.

These data come from PubChem BioAssay (NCI).
